The record followed here is US10364226B2, “Pyridazinone compounds and uses thereof” (priority 2013, dated 2019).

The test system of the first experiment is Influenza strain A549 A/WSN/33 (H1N1). As to the kind of experiment: Influenza Antiviral Assay. The experiment is classed as cell-based, Influenza A virus. The conditions noted are these: Influenza A virus, A549, 20 h, neuraminidase fluorescence readout, read-out: % Inhibition.
As for `CC(NC(=O)c1nn(CC2(c3cccc(C(F)(F)F)c3)CCCC2)cc(O)c1=O)c1ccccc1` (stereo not drawn) [Compound 637], the EC50 is under 20 µM.

For the compound `CNC(=O)c1nn(Cc2ccccc2-c2ccc(C(C)(C)C)cc2)cc(O)c1=O` [Compound 642], the EC50 is over 100 µM.

On to `CNC(=O)c1nn(-c2ccccc2Sc2cccc(Cl)c2)cc(O)c1=O` [Compound 643], for which the EC50 is over 100 µM.

As for `CNC(=O)c1nn(CC(Cc2ccccc2)c2cccc(C(F)(F)F)c2)cc(O)c1=O` (stereo not drawn) [Compound 647], the EC50 is under 20 µM.

Consider `CNC(=O)c1nn(-c2ccccc2-c2ccc3ccncc3c2)cc(O)c1=O` [Compound 651], for which the EC50 is 20 to 100 µM.

With `CNC(=O)c1nn(-c2ccccc2-c2cc(C)cc(OCC3CC3)c2)cc(O)c1=O` [Compound 652], the EC50 is over 100 µM.

As for `Cc1cc(OCC2CC2)cc(-c2ccccc2-n2cc(O)c(=O)c(C(=O)O)n2)c1` [Compound 653], the EC50 was over 100 µM.

`CC(C)(C)c1ccc(-c2ccccc2Cn2cc(O)c(=O)c(C(=O)O)n2)cc1` [Compound 657]: the EC50 was over 100 µM.

Consider `CNC(=O)c1nn(C(Cc2ccccc2)C(=O)NC)cc(O)c1=O` (stereo not drawn) [Compound 667], for which the EC50 is over 100 µM.

As to `CNC(=O)c1nn(C(Cc2ccccc2)C(=O)Nc2ccccc2)cc(O)c1=O` (stereo not drawn) [Compound 668], the EC50 is over 100 µM.

`Cc1[nH]c2ccc(CNC(=O)c3nn(CC4(c5cccc(C(F)(F)F)c5)CCCC4)cc(O)c3=O)cc2c1C` [Compound 672]: the EC50 is under 20 µM.

Take `CNC(=O)c1nn(CC2(n3cc(-c4cncnc4)c4cccnc43)CCCC2)cc(O)c1=O` [Compound 673]: the EC50 is over 100 µM.

In the case of `CNC(=O)c1nn(CC2(c3ccc(OC)cc3)CC2)cc(O)c1=O` [Compound 675], the EC50 was over 100 µM.

For `CNC(=O)c1nn(CC2(c3cccc(OC(F)(F)F)c3)CCCC2)cc(O)c1=O` [Compound 684], the EC50 was under 20 µM.

In the case of `CNC(=O)c1nn(CC2(c3ccc(C(C)C)cc3)CC2)cc(O)c1=O` [Compound 688], the EC50 was under 20 µM.

As to `CNC(=O)c1nn(Cc2cc(C(F)(F)F)ccc2-c2ccccc2)cc(O)c1=O` [Compound 689], the EC50 was over 100 µM.

In the case of `CNC(=O)c1nn(Cc2cc(C(F)(F)F)ccc2-c2ccc(C(C)(C)C)cc2)cc(O)c1=O` [Compound 690], the EC50 is over 100 µM.

`O=C(NCc1ccccn1)c1nn(CC2(c3ccccc3)CCCC2)cc(O)c1=O` [Compound 691]: the EC50 was under 20 µM.

On to `O=C(Nc1ccc(Oc2ccccc2)cc1)c1nn(CC2(c3ccccc3)CCCC2)cc(O)c1=O` [Compound 696], for which the EC50 was over 100 µM.

Turning to `COc1ccc(NC(=O)c2nn(CC3(c4ccccc4)CCCC3)cc(O)c2=O)cc1` [Compound 697], the EC50 was over 100 µM.

With `O=C(NCc1ccccc1)c1nn(CC2(c3ccccc3)CCCC2)cc(O)c1=O` [Compound 698], the EC50 was under 20 µM.

For the compound `O=C(NCc1cccnn1)c1nn(CC2(c3ccccc3)CCCC2)cc(O)c1=O` [Compound 699], the EC50 was under 20 µM.

Regarding `CNC(=O)c1nn(CC2(c3cccc(C(C)C)c3)CC2)cc(O)c1=O` [Compound 702], the EC50 was under 20 µM.

For the compound `COc1ccc(NC(=O)c2nn(CC3(c4ccccc4)CCCC3)cc(O)c2=O)cc1OC` [Compound 705], the EC50 was over 100 µM.

With `CC(C)Oc1ccc(NC(=O)c2nn(CC3(c4ccccc4)CCCC3)cc(O)c2=O)cc1` [Compound 706], the EC50 was over 100 µM.

`O=C(Nc1ccc(Cl)cc1Cl)c1nn(CC2(c3ccccc3)CCCC2)cc(O)c1=O` [Compound 707]: the EC50 is under 20 µM.

Regarding `CNC(=O)c1nn(CC2(c3ccc(-c4ccnn4C)cc3)CC2)cc(O)c1=O` [Compound 710], the EC50 was over 100 µM.

As to `CNC(=O)c1nn(CC2(c3cccc(C4CCCCC4)c3)CCCC2)cc(O)c1=O` [Compound 711], the EC50 was under 20 µM.

As for `CNC(=O)c1nn(CC2(c3cccc(-c4cn[nH]c4)c3)CC2)cc(O)c1=O` [Compound 712], the EC50 was over 100 µM.

Take `CNC(=O)c1nn(CC2(c3cccc(-c4ccnn4C)c3)CC2)cc(O)c1=O` [Compound 713]: the EC50 was over 100 µM.

For `CNC(=O)c1nn(CC2(c3cccc(-c4cn[nH]c4)c3)CCCC2)cc(O)c1=O` [Compound 714], the EC50 was over 100 µM.

Take `O=C(Nc1ccc(Cl)c(C(F)(F)F)c1)c1nn(CC2(c3ccccc3)CCCC2)cc(O)c1=O` [Compound 719]: the EC50 was over 100 µM.

On to `CS(=O)(=O)c1ccc(NC(=O)c2nn(CC3(c4ccccc4)CCCC3)cc(O)c2=O)cc1` [Compound 721], for which the EC50 is over 100 µM.

On to `CNC(=O)c1nn(CC2(c3cccc(-c4ccsc4)c3)CC2)cc(O)c1=O` [Compound 724], for which the EC50 is over 100 µM.

For `CNC(=O)c1nn(CC2(c3cccc(Oc4ccccc4)c3)CCCC2)cc(O)c1=O` [Compound 725], the EC50 is under 20 µM.

Turning to `CNC(=O)c1nn(CC2(c3cccc(-c4cnc5ccccc5c4)c3)CC2)cc(O)c1=O` [Compound 726], the EC50 is under 20 µM.

In the case of `CNC(=O)c1nn(CC2(c3cccc(-c4cncc(F)c4)c3)CC2)cc(O)c1=O` [Compound 727], the EC50 is over 100 µM.

As for `CNC(=O)c1nn(CC2(c3ccc(-c4cn[nH]c4)cc3)CC2)cc(O)c1=O` [Compound 728], the EC50 was over 100 µM.

Take `CNC(=O)c1nn(CC2(c3ccc(C4CCCCC4)cc3)CC2)cc(O)c1=O` [Compound 729]: the EC50 is over 100 µM.

Take `CNC(=O)c1nn(CC2(c3cccc(-c4ccnn4C)c3)CCCC2)cc(O)c1=O` [Compound 731]: the EC50 was over 100 µM.

Take `CNC(=O)c1nn(CC2(c3cccc(-c4ccncc4)c3)CCCC2)cc(O)c1=O` [Compound 732]: the EC50 is over 100 µM.

For the compound `CNC(=O)c1nn(CC2(c3cccc(-c4ccc(OC)nc4)c3)CCCC2)cc(O)c1=O` [Compound 734], the EC50 was over 100 µM.

Consider `CNC(=O)c1nn(CC2(c3cccc(-c4cnc5ccccc5c4)c3)CCCC2)cc(O)c1=O` [Compound 735], for which the EC50 was over 100 µM.

For the compound `CNC(=O)c1nn(CC2(c3cccc(-c4cncc(F)c4)c3)CCCC2)cc(O)c1=O` [Compound 736], the EC50 was over 100 µM.

With `CNC(=O)c1nn(CC2(c3ccc(-c4ccc5c(c4)OCO5)cc3)CC2)cc(O)c1=O` [Compound 737], the EC50 was under 20 µM.

As for `CNC(=O)c1nn(CC2(c3cccc(-c4ccco4)c3)CC2)cc(O)c1=O` [Compound 739], the EC50 is over 100 µM.

Regarding `CNC(=O)c1nn(CC2(c3cccc(-c4ccoc4)c3)CC2)cc(O)c1=O` [Compound 744], the EC50 is over 100 µM.

As for `CNC(=O)c1nn(CC2(c3cccc(-c4ccco4)c3)CCCC2)cc(O)c1=O` [Compound 745], the EC50 was under 20 µM.

Regarding `O=C(NCc1ccc(F)c(Cl)c1)c1nn(CC2(c3ccc(-c4ccccc4)cc3)CCCC2)cc(O)c1=O` [Compound 746], the EC50 is over 100 µM.

With `CNC(=O)c1nn(CC2(c3cccc(-c4cnn(C)c4)c3)CC2)cc(O)c1=O` [Compound 748], the EC50 was over 100 µM.

For the compound `O=C(NCc1ccc(F)c(Cl)c1)c1nn(CC2(c3cccc(Oc4ccccc4)c3)CCCC2)cc(O)c1=O` [Compound 751], the EC50 is over 100 µM.

`CNC(=O)c1nn(CC2(c3ccc(-c4cncc(F)c4)cc3)CCCC2)cc(O)c1=O` [Compound 763]: the EC50 was under 20 µM.

Regarding `CNC(=O)c1nn(CC2(c3cccc(-c4ccn[nH]4)c3)CCCC2)cc(O)c1=O` [Compound 767], the EC50 is under 20 µM.

For `CNC(=O)c1nn(CC2(c3cccc(-c4cnn(C)c4)c3)CCCC2)cc(O)c1=O` [Compound 769], the EC50 is over 100 µM.

In the case of `CNC(=O)c1nn(CC2(c3ccc(-c4ccc(OC)nc4)cc3)CCCC2)cc(O)c1=O` [Compound 770], the EC50 is under 20 µM.

As to `CNC(=O)c1nn(CC2(c3ccc(-c4ccnn4C)cc3)CCCC2)cc(O)c1=O` [Compound 779], the EC50 is over 100 µM.

Regarding `CNC(=O)c1nn(CC2(c3ccc(-c4cc[nH]n4)cc3)CCCC2)cc(O)c1=O` [Compound 780], the EC50 was under 20 µM.

In the case of `CNC(=O)c1nn(CC2(c3ccc(-c4ccncc4)cc3)CCCC2)cc(O)c1=O` [Compound 781], the EC50 was under 20 µM.

The target in a further experiment is EN PA (Influenza A virus, UniProt P15659). As to the kind of experiment: EN PA FRET Inhibition Assay. The experiment is classed as biochemical. Particulars: read-out: Potency.
As for `CNC(=O)c1nn(-c2ccccc2-c2ccc3ccn(C)c3c2)cc(O)c1=O` [Compound 618], the IC50 is at least 1 µM.

In the case of `CNC(=O)c1nn(-c2ccccc2-c2ccc3c(ccn3C)c2)cc(O)c1=O` [Compound 620], the IC50 is at least 1 µM.

On to `CNC(=O)c1nn(CC2(c3ccccc3)CCCC2)cc(O)c1=O` [Compound 627], for which the IC50 fell in the range of 0.1 to 1 µM.

In the case of `CNC(=O)c1nn(-c2ccccc2N2CCCc3ccccc32)cc(O)c1=O` [Compound 628], the IC50 is at least 1 µM.

With `CNC(=O)c1nn(-c2ccccc2-c2cc(Cl)cc(OC)c2)cc(O)c1=O` [Compound 629], the IC50 was at least 1 µM.

With `CNC(=O)c1nn(-c2ccccc2-c2ccccc2OCC(C)C)cc(O)c1=O` [Compound 630], the IC50 was 0.1 to 1 µM.

`CNC(=O)c1nn(-c2ccccc2N2CCc3ccccc32)cc(O)c1=O` [Compound 632]: the IC50 is at least 1 µM.

For `CCOc1cc(C)cc(-c2ccccc2-n2cc(O)c(=O)c(C(=O)NC)n2)c1` [Compound 633], the IC50 is at least 1 µM.

Regarding `CNC(=O)c1nn(CCc2cccc3ccccc23)cc(OC(C)=O)c1=O` [Compound 636], the IC50 is at least 1 µM.

In the case of `CNC(=O)c1nn(CC2(c3cccc(Oc4ccccc4)c3)CCCC2)cc(O)c1=O` [Compound 701], the IC50 is under 0.1 µM.

With `O=C(NCc1ccc(F)c(Cl)c1)c1nn(CC2(c3cccnc3)CCCC2)cc(O)c1=O` [Compound 802], the IC50 was under 0.1 µM.

As for `O=C(NCc1ccc(F)c(Cl)c1)c1nn(CC2(c3ccc(Cl)cc3)CCCC2)cc(O)c1=O` [Compound 803], the IC50 was under 0.1 µM.

`O=C(NCc1ccccc1)c1nn(CC2(c3ccc(Cl)cc3)CCCC2)cc(O)c1=O` [Compound 804]: the IC50 is under 0.1 µM.

For the compound `O=C(NCc1ccc(F)c(Cl)c1)c1nn(CC2(c3ccc(F)c(F)c3)CCCC2)cc(O)c1=O` [Compound 805], the IC50 is under 0.1 µM.
